This note sets out measurements from ChEMBL document CHEMBL1135488, “Prediction of volume of distribution values in humans for neutral and basic drugs using physicochemical measurements and plasma protein binding data” (J Med Chem, 2002).

Series [1] can be described thus: in vitro. The conditions noted are these: human, plasma.
Series [2] can be described thus: clinical. The note with it: human, in vivo, iv.
The nature of series [3]: Ionisation constant (pKa). The format is physicochemical.
The conditions of series [4]: pH 7.4.
Series [5] is described as follows: physchem.
Series [6] can be described thus: in vitro. The conditions noted are these: tissues.

Regarding `CC(=O)Nc1ccc(O)cc1` [ACETAMINOPHEN], the fraction unbound in series [1] turned out to be 1; in series [6], 0.503. Further, the Vd in series [2] is 0.95 L/kg. For the same compound, in series [3], the pKa result was “Not Active”. In series [4], this compound returned a Fraction ionised of 0. Further, the chromatographic logD in series [5] was 0.38.
As to `CN1CCCC(n2nc(Cc3ccc(Cl)cc3)c3ccccc3c2=O)CC1` (configuration not stated) [AZELASTINE], the values for the fraction unbound in series [1] and in series [6] were 0.17 and 0.004, respectively. In series [2], the Vd amounted to 15 L/kg. In addition, the pKa in series [3] was 9.54. This compound also returned a Fraction ionised in series [4] of 0.993. For the same compound, the chromatographic logD in series [5] stood at 1.93.
The compound `CCC(C)n1ncn(-c2ccc(N3CCN(c4ccc(OCC5COC(Cn6cncn6)(c6ccc(Cl)cc6Cl)O5)cc4)CC3)cc2)c1=O` (configuration not stated) [ITRACONAZOLE] returned an unbound share (fraction unbound) in series [1] of 0.028. Besides, the Vd in series [2] was found to be 3.9 L/kg. Further, in series [3], the pKa entry is given as “Not Active”. In series [4], the Fraction ionised is listed as 0. In series [5], this compound came in with a chromatographic logD of 5.79.
